Results: patent US4963570A, “1-(acetylaminophenyl)-2-aminopropanone derivatives and pharmaceutical compositions thereof” (Laboratoire L. Lafon, priority 1983, dated 1990)
“Also recorded” adds a separate entry of the source. Where a name gives a salt, the structure may show the parent alone.

Legend:
mice [1] = test: overall behavior and reactivities in mice; format: in vivo, mouse; conditions: mice, i.p.
Protocol: (§1) Groups of three animals are observed before and then 0.25 hour, 0.50 hour, 1 hour, 2 hours, 3 hours and 24 hours after the administration of CRL 41 224.

rats [2] = test: overall behavior and reactivities in rats; format: in vivo, rat; conditions: i.p.
Protocol: as §1

mice [3] = test: interaction with apomorphine in mice; format: in vivo, mouse
Protocol: Groups of 6 mice receive CRL 41 224 0.5 hour before the subcutaneous injection of 1 or 16 mg/kg of apomorphine.

rats [4] = test: interaction with apomorphine in rats; format: in vivo, rat; conditions: i.p.
Protocol: CRL 41 224 is administered to groups of 6 rats 0.5 hour before the subcutaneous injection of 0.5 mg/kg of apomorphine.

rats [5] = test: interaction with amphetamine; format: in vivo, rat; conditions: rats, i.p.
Protocol: Amphetamine (2 mg/kg) is injected intraperitoneally into groups of 6 rats 30 minutes after the administration of CRL 41 224.

mice [6] = test: interaction with reserpine; format: in vivo, mouse; conditions: i.p.
Protocol: Four hours after the intraperitoneal injection of 2.5 mg/kg of reserpine, groups of 6 mice receive CRL 41 224.

mice [7] = test: interaction with oxotremorine; format: in vivo, mouse
Protocol: CRL 41 224 is administered to groups of 6 mice 0.5 hour before the intraperitoneal injection of 0.5 mg/kg of oxotremorine.

mice [8] = test: four plate test, traction and electric shock; format: in vivo, mouse; conditions: i.p.
Protocol: The test is performed on groups of 10 mice 30 minutes after the administration of CRL 41 224.

mice [9] = test: action on the spontaneous motility (actimeter); format: in vivo, mouse; conditions: mice, i.p.
Protocol: 0.5 hour after they have received CRL 41 224, the mice (6 per dose, 12 control animals) are placed in an actimeter, where their motility is recorded for 30 minutes.

mice [10] = test: action on the intergroup aggression; format: in vivo, mouse; conditions: i.p.
Protocol: After they have stayed for 3 weeks in the 2 halves of a cage divided by an opaque partition, groups of 3 mice receive CRL 41 224. Half an hour later, the two groups from the same cage are brought together by removal of the partition, and the number of fights which occur in 10 minutes is noted. Half the test is performed on ordinary mice (NMRI, C.E.R. January) and half on NMRI (Iffa Credo) mice.

mice [11] = test: motility reduced by habituation to the enclosure; format: in vivo, mouse; conditions: i.p.
Protocol: After they have stayed in the actimeters for 18 hours, the mice (6 per dose, 12 control animals) receive CRL 41 224. They are immediately returned to their respective enclosures and, half an hour later, their motility is recorded for 30 minutes.

mice [12] = test: motility reduced by hypoxic aggression; format: in vivo, mouse
Protocol: Half an hour after they have received CRL 41 224, the mice (10 per dose, 20 control animals) are subjected to acute hypobaric anoxia [pressure reduction of 600 mm Hg (i.e. about 8×10^4 Pa) in 90 seconds; release of vacuum in 45 seconds] and are then placed in an actimeter, where their motility is recorded for 10 minutes.

mice [13] = test: asphyxiant anoxia (gallamine triiodoethylate); format: in vivo, mouse; conditions: mice, i.p.; gallamine triiodoethylate 32 mg/kg i.p.
Protocol: Groups of 10 mice receive CRL 41 224 half an hour before the intraperitoneal administration of 32 mg/kg of gallamine triiodoethylate (reference curarizing agent).

mice [14] = test: interaction with barbital; format: in vivo, mouse; conditions: i.p.
Protocol: Half an hour after the administration of CRL 41 224, groups of 10 mice receive an intraperitoneal injection of barbital (220 mg/kg).

mice [15] = test: action on the behavioral despair; format: in vivo, mouse; conditions: i.p.
Source text: Half an hour after they have received CRL 41 224, groups of 6 mice are placed in a beaker filled with water to a height of 6 cm. The total period of immobility between the 2nd and 6th minutes following immersion is noted.

CNS = test: overall neuropsychopharmacological (CNS) profile; format: in vivo, mouse; rat; conditions: i.p., mice and rats, dose not stated
Protocol: The neuropsychopharmacological study of CRL 41 219 was carried out as indicated above for CRL 41 224.
The neuropsychopharmacological study of CRL 41 220 was carried out in accordance with the procedures given above for CRL 41 224.

[16] = system: peripheral α-adrenergic stimulation; test: signs of peripheral adrenergic stimulation; format: in vivo, mouse; rat; conditions: i.p., dose not stated
Protocol: as §1

male mice = test: acute toxicity, intraperitoneal (lethal doses); format: in vivo, mouse; conditions: i.p.
Protocol: By intraperitoneal administration to male mice, the LD-30 (lethal dose for 30% of the animals tested) is of the order of 128 mg/kg and the LD-50 is of the order of about 200 mg/kg.

[17] = mice, i.p., 8, 32 and 128 mg/kg, apomorphine 1 or 16 mg/kg s.c.

CCNC(C)C(=O)c1ccc(NC(C)=O)cc1 (stereo not shown) [CRL 41 224, 1-(4-acetylaminophenyl)-2-ethylaminopropanone hydrochloride]
excitation, duration (mice [1]; 32 mg/kg): 3 h
excitation, duration (mice [1]; 128 mg/kg): 3 h
hyperthermia, temperature change (mice [1]; 128 mg/kg): +0.9 °C
increase in the reactivity to touch and muscular tonus, duration (mice [1]; 128 mg/kg): 24 h
moderate mydriasis, duration (mice [1]; 128 mg/kg): 3 h
forms of behavior, reactivities and variations in pupil diameter and rectal temperature (mice [1]; 2 and 8 mg/kg): substantially comparable to those of the control group
mydriasis (rats [2]; 1 mg/kg): brief mydriasis
mydriasis, time of appearance after administration (rats [2]; 1 mg/kg): 0.5 h
mydriasis, duration (rats [2]; 4 mg/kg): 2 h
mydriasis, duration (rats [2]; 16 mg/kg): 3 h
stereotypies, duration (rats [2]; 16 mg/kg): 3 h
excitation, duration (rats [2]; 64 mg/kg): 1 h
hyperthermia, duration (rats [2]; 64 mg/kg): 3 h
hyperthermia, temperature change (rats [2]; 64 mg/kg): +1.5 °C
increase in the reactivity to touch and muscular tonus, duration (rats [2]; 64 mg/kg): 3 h
mydriasis, duration (rats [2]; 64 mg/kg): 3 h
piloerection, duration (rats [2]; 64 mg/kg): 1 h
stereotypies, duration (rats [2]; 64 mg/kg): 3 h
hypothermia induced by apomorphine (mice [3]; [17]): opposes the hypothermia induced by apomorphine
righting behavior and stereotypy behavior (apomorphine) (mice [3]; [17]): without modifying the righting behavior and stereotypy behavior
stereotypies induced by apomorphine (rats [4]; 16 and especially 64 mg/kg, apomorphine 0.5 mg/kg s.c.): potentiation of the stereotypies induced by apomorphine
stereotypies induced by amphetamine (rats [5]; 16 and especially 64 mg/kg, amphetamine 2 mg/kg i.p.): potentiation of the stereotypies induced by amphetamine
ptosis induced by reserpine (mice [6]; mice, 128 mg/kg): reduces the intensity of the ptosis induced by reserpine
significance of the antagonism of hypothermia induced by reserpine (mice [6]; mice, 32 and 128 mg/kg): significant
hypothermia induced by reserpine (mice [6]; mice, as from 2 mg/kg, reserpine 2.5 mg/kg i.p.): opposes the hypothermia induced by reserpine
signs of peripheral cholinergic stimulation induced by oxotremorine (mice [7]; mice, i.p.): does not modify the signs of peripheral cholinergic stimulation
hypothermic action of oxotremorine (mice [7]; mice, i.p., 2, 8 and especially 32, 128 mg/kg, oxotremorine 0.5 mg/kg i.p.): opposes the hypothermic action of oxotremorine
trembling induced by oxotremorine (mice [7]; mice, i.p., 8, 32 and especially 128 mg/kg): distinctly reduces the intensity of the trembling induced by oxotremorine
convulsant effects of electric shock (mice [8]; mice, 128 mg/kg): does not aggravate the convulsant effects
lethal effects of electric shock (mice [8]; mice, 128 mg/kg): does not modify the lethal effects of electric shock
motor incapacity (traction) (mice [8]; mice, 128 mg/kg): does not cause major motor incapacity
number of punished passes (four plate test) (mice [8]; mice, 128 mg/kg): increase in the number of punished passes
spontaneous motor activity (mice [9]; 8 and especially 32, 128 mg/kg): increases the spontaneous motor activity
number of fights (mice [10]; 128 mg/kg): reduces the number of fights
motor activity of mice accustomed to their enclosure (mice [11]; 32 and 128 mg/kg): distinct resumption in the motor activity
motor recovery after acute hypobaric anoxia (mice [12]; i.p., 8, 32 and especially 128 mg/kg): distinct improvement in the motor recovery
time taken for convulsions and death to occur following asphyxiant anoxia (mice [13]): does not change the time taken for convulsions and death to occur
antagonism of the sleep induced by barbital (mice [14]; mice, 32 mg/kg): total antagonism
duration of the sleep induced by barbital (mice [14]; mice, as from 2 mg/kg, barbital 220 mg/kg i.p.): reduces the duration of the sleep induced by barbital
period of immobility (forcibly immersed mice) (mice [15]; 8 and especially 32, 128 mg/kg): reduces the period of immobility
overall action on the CNS (CNS; hydrochloride): antidepressant effects; also recorded: stimulant effects; also recorded: behaves as an antidepressant for the CNS
peripheral adrenergic stimulation, overall [16]: peripheral α-adrenergic stimulant effects

CC(=O)Nc1ccc(C(=O)C(C)NC2CC2)cc1 (stereo not shown) [CRL 41 245]
LD-0 (maximum non-lethal dose) (male mice): greater than 256 mg/kg
LD-100 (male mice): less than or equal to 512 mg/kg
excitation in mice (mice [1]; dose not stated): excitation with hyperreactivity in mice
stereotype movements in mice (mice [1]; dose not stated): presence of stereotype movements in mice
excitation in rats (rats [2]; dose not stated): excitation with hyperreactivity in mice and rats
stereotype movements in rats (rats [2]; dose not stated): presence of stereotype movements in mice and rats
hypothermia induced by apomorphine (mice [3]; i.p., dose not stated): antagonism of the hypothermia induced by apomorphine
stereotypies induced by apomorphine (rats [4]; dose not stated): potentiation of the stereotypies induced by apomorphine
stereotypies induced by amphetamine (rats [5]; dose not stated): potentiation of the stereotypies induced by apomorphine and amphetamine
hypothermia induced by reserpine (mice [6]; dose not stated): antagonism of the hypothermia induced by apomorphine, reserpine
ptosis induced by reserpine (mice [6]; dose not stated): reduction in the ptosis induced by reserpine
trembling due to oxotremorine (mice [7]; i.p., strong dose): a reduction, at a strong dose, in the intensity of the trembling due to oxotremorine
hypothermia induced by oxotremorine (mice [7]; i.p., dose not stated): antagonism of the hypothermia induced by apomorphine, reserpine and oxotremorine
convulsant effects of electric shock (mice [8]; strong/high dose): total antagonism
number of punished passes in the 4 plate test (mice [8]; mice, dose not stated): increase in the number of punished passes
spontaneous motility / motor activity (mice [9]; dose not stated): increase in the spontaneous motor activity
intergroup aggression (mice [10]; dose not stated): a reduction in the intergroup aggression
motor activity after habituation to the enclosure (mice [11]; dose not stated): resumption in the motor activity of mice accustomed to their enclosure
motor recovery after hypoxic aggression (mice [12]; i.p., dose not stated): improvement in the motor recovery in mice subjected to acute hypoxia
sleep induced by barbital (mice [14]; dose not stated): reduction in the duration of the sleep induced by barbital
period of immobility or "despair" (mice [15]; dose not stated): reduction in the period of immobility
overall action on the CNS (CNS): behaves as an antidepressant with a strong stimulant component
mydriasis [16]: mydriasis in rats
peripheral adrenergic stimulation, overall [16]: peripheral α-adrenergic stimulation
piloerection ([16]; mice and rats): piloerection in mice and rats
